This is an account of results in PMC4467156, “A new chemical inhibitor of angiogenesis and tumorigenesis that targets the VEGF signaling pathway upstream of Ras” (Oncotarget, 2015).

In one experiment the target is PDGFRß (Homo sapiens, UniProt P09619). Nature of the experiment: In vitro kinase assay PDGFRß. Format: biochemical. Conditions: concentrations up to 50 μM. How it is done:
We first wondered whether COB223 required to be internalized to exert its biological effect. For this, we synthesized a covalent complex between BSA and COB223 and purified it. […] In vitro kinase assays were performed with a panel of purified protein-kinases involved in mitogenic signaling, including VEGFR2, FGFR1, FGFR2, PDGFRß, Met, Raf, MEK1, ERK1, ERK2, PKCα, PKCβI, PKCβII, PKCζ as indicated in Table 2. […] We then analyzed the effect of COB223 on VEGF-induced phosphorylations of VEGFR2, MEK and ERK1/2 (Figure 9). […] (Figure 9A, 9B). […] It was also specific of the p42/p44 MAP kinase pathway as activation of p38 MAP kinase phosphorylation in HUVEC cells by VEGF or serum was unaffected by COB223 (data not shown). The activation of src phosphorylation by VEGF in HUVECs was also unaffected by COB223 (data not shown).

Experiment [1] relates to HUVEC cells. Nature of the experiment: 3H-thymidine incorporation, HUVEC. Format: cell-based, human. Conditions: HUVEC, 24 h. As to the method: (§1) Cells were treated with molecules in complete medium. After 22 h, 1 μCi per well H^3 thymidine was added for 2 hours. Cells are then fixed by 10% trichloroacetic acid and harvested with 0.2N NaOH, 1% SDS. Radioactivity was measured in a beta counter.
For orientation: Incorporation of labelled thymidine or its analogues reports DNA synthesis.

For experiment [2], the system named is HUVEC cells. Put plainly: Boyden chamber cell migration assay. In kind it is cell-based, human. Conditions: 25 μM COB223 in upper chamber. As to the method:
The assay was performed using 24-multiwell plates and individual cell culture inserts bearing a porous (size of pores: 3 μm) and dyed bottom membrane, which were purchased from BD (FluoroBlok^TM). HUVEC cells were rendered fluorescent by incubation for 24 h in the presence of 5 μg/ml of Di-I (1,1′-dioctadecyl-3,3,3′3′-tetramethylindocarbocyanine perchlorate) and subsequently seeded (5 × 10^4 cells/insert) in the upper chambers (inserts) in serum-free culture medium supplemented with 25 μM COB223 or with vehicle (DMSO). Serum supplemented medium (5% FCS) was placed in the lower chambers (plate wells). After incubation for 4 h or 24 h at 37°C, the fluorescence of cells that had passed through the dyed membrane was measured on a plate reader at 540 nm/570 nm excitation/emission wavelengths. […]
Figure S1: Effect of COB223 on endothelial cell migration. […] Wound closure was measured after 24 h and 48 h of incubation as described in Material and Methods. […]
(B) Boyden chamber assay: The technique is described in Material and Methods. We measured the passage of fluorescently labeled HUVEC cells through a 3 μm-porous membrane in response to fetal calf serum used as a chemo-attractant. […] The Figure represents the mean fluorescence ± SD of duplicate determinations after 24 h or 48h of incubation from two independent experiments. […]

In another experiment the test system is HMEC-GFP spheroids. Nature of the experiment: Sprouting of HMEC-GFP spheroids into collagen gels. Format: cell-based. Conditions: Homo sapiens. How it is done:
To prepare spheroids, HMEC-GFP cells were seeded at 3000 cells/well in round-bottom 96-multiwell plates in DMEM 1 g/L glucose (Eurobio, Les Ulis, France) containing 0.25% methylcellulose. 48 h later, the spheroids were collected, transferred into flat-bottom 96-well plates and embedded in collagen gel (1.2 mg/mL type I collagen) prepared in a Iscove's modified Dulbecco's medium, supplemented with FGF-2 (10 ng/mL), 50 U/mL penicillin and 50 μg/mL streptomycin. Treatment with COB223 (10 and 20 μM) started right after spheroids were included in the collagen gels. Sprouting was allowed for 24 h at 37°C. Images were acquired by fluorescence microscopy and analysis of gel invasion was performed using the freeware Image J. Statistical analysis was performed using a Kruskal & Wallis test.
HMEC-GFP cells were developed as spheroids in an Iscove's modified Dulbecco's medium containing 0.2% methylcellulose in round-bottom 96-multiwell plate. Two days later, spheroids were collected and invasion was allowed in a Iscove's modified Dulbecco's medium, supplemented with 1.2 mg/mL collagen I, 50 U/mL Penicillin, 50 μg/mL streptomycin. Molecules (10 or 20 μM) or FGF-2 (10 ng/mL) were added in the preparation before collagen gelification.

The test system of another experiment is HMVECd cells. Put plainly: 3H-thymidine incorporation, HMVECd. In kind it is cell-based, human. Conditions: 24 h. As to the method:
as §1

Structures are written as SMILES. Read-outs that look alike come from different tables or passages of the source.

Sequence of PDGFRß (P09619 33-1106, species assumed): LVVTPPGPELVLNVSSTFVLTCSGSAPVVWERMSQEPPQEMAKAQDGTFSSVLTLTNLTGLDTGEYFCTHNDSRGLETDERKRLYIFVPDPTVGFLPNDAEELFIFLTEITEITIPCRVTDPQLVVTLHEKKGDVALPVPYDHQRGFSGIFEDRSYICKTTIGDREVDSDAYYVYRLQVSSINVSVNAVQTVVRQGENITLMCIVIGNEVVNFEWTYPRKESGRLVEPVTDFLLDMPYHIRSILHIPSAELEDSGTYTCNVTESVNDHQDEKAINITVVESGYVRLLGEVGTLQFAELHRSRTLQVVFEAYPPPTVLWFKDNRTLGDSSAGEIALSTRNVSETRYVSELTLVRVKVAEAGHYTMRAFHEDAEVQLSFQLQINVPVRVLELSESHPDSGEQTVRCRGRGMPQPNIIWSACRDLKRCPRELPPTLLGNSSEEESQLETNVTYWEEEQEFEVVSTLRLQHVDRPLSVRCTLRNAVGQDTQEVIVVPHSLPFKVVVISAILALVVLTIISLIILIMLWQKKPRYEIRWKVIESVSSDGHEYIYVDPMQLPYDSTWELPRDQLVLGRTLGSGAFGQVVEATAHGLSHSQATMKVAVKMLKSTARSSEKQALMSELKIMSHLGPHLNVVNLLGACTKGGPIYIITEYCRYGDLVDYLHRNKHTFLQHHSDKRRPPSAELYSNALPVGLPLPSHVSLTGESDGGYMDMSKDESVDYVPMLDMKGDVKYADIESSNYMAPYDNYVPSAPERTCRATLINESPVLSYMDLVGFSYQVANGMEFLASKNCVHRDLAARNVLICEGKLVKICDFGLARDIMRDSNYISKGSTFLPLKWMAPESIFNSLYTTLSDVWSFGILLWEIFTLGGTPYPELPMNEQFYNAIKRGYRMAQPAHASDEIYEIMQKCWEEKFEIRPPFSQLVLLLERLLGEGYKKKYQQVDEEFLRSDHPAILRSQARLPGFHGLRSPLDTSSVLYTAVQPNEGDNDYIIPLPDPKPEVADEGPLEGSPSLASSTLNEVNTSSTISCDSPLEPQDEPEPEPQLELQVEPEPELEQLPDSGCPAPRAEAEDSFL

In the case of `CN(C)c1cccc2c(S(=O)(=O)NCCCN3CCN(CCCNC(=O)OC(C)(C)C)CC3)cccc12` [COB223, tert-Butyl 3-(4-(3-(5-(dimethylamino)naphthalene-1-sulfonamido)propyl)piperazin-1-yl) propylcarbamate], the “kinase inhibition” value on PDGFRß was “None of them was inhibited”. Also, the “concentrations inhibiting thymidine incorporation” value in the experiment with HUVEC cells [1] and in the experiment on HMVECd cells was “above 5 μM” each time. Besides, the “migration towards fetal calf serum (Boyden chamber)” value with HUVEC cells [2] is listed as “significantly inhibited”. Besides, the inhibition (in general, the drop in the measured response relative to a control, in per cent) at 10 µM with HMEC-GFP spheroids (10 μM COB223, 10 ng/ml FGF-2, collagen I gel, read-out: inhibition of FGF-2-stimulated sprouting) was found to be 70%; in the experiment with HMEC-GFP spheroids (10 μM COB223, collagen I gel, read-out: inhibition of basal sprouting), 50%.
